The source made the active and inactive calls. The calls are words filed in the database; no cut-off is given here.
Assays:
[1] = test system: NCI-H460; assay: Growth inhibition of human NCI-H460 cells after 48 hrs by sulforhodamine B assay; assay type: functional; conditions: NCI-H460, 48 h
[2] = test system: HCT-15; assay: Growth inhibition of human HCT15 cells after 48 hrs by sulforhodamine B assay; assay type: functional; conditions: HCT-15, 48 h
[3] = test system: NCI-H23; assay: Growth inhibition of human NCI-H23 cells after 48 hrs by sulforhodamine B assay; assay type: functional; conditions: NCI-H23, 48 h
[4] = test system: NCI-H226; assay: Growth inhibition of human NCI-H226 cells after 48 hrs by sulforhodamine B assay; assay type: functional; conditions: NCI-H226, 48 h
[5] = test system: HOP-92; assay: Growth inhibition of human HOP92 cells at 10 uM after 48 hrs by sulforhodamine B assay; assay type: functional, cell-based
[6] = test system: OVCAR-5; assay: Growth inhibition of human OVCAR5 cells after 48 hrs by sulforhodamine B assay; assay type: functional; conditions: OVCAR-5, 48 h
[7] = test system: SF-539; assay: Growth inhibition of human SF539 cells after 48 hrs by sulforhodamine B assay; assay type: functional; conditions: SF-539, 48 h
[8] = test system: SK-MEL-5; assay: Growth inhibition of human SK-MEL-5 cells after 48 hrs by sulforhodamine B assay; assay type: functional; conditions: SK-MEL-5, 48 h
[9] = test system: MOLT-4; assay: Growth inhibition of human MOLT4 cells at 10 uM after 48 hrs by sulforhodamine B assay; assay type: functional, cell-based
[10] = test system: NCI-H322M; assay: Growth inhibition of human NCI-H322M cells after 48 hrs by sulforhodamine B assay; assay type: functional
[11] = test system: SF-295; assay: Growth inhibition of human SF295 cells after 48 hrs by sulforhodamine B assay; assay type: functional; conditions: SF-295, 48 h
[12] = test system: K562; assay: Growth inhibition of human K562 cells after 48 hrs by sulforhodamine B assay; assay type: functional; conditions: K562, 48 h
[13] = test system: T47D; assay: Growth inhibition of human T47D cells at 10 uM after 48 hrs by sulforhodamine B assay; assay type: functional, cell-based
[14] = test system: TK-10; assay: Growth inhibition of human TK10 cells at 10 uM after 48 hrs by sulforhodamine B assay; assay type: functional, cell-based
[15] = test system: NCI-H522; assay: Growth inhibition of human NCI-H522 cells at 10 uM after 48 hrs by sulforhodamine B assay; assay type: functional, cell-based
[16] = test system: IGROV-1; assay: Growth inhibition of human IGROV1 cells at 10 uM after 48 hrs by sulforhodamine B assay; assay type: functional, cell-based
[17] = test system: SF-268; assay: Growth inhibition of human SF268 cells at 10 uM after 48 hrs by sulforhodamine B assay; assay type: functional, cell-based
[18] = test system: A498; assay: Growth inhibition of human A498 cells after 48 hrs by sulforhodamine B assay; assay type: functional; conditions: A498, 48 h
[19] = test system: SF-295; assay: Growth inhibition of human SF295 cells at 10 uM after 48 hrs by sulforhodamine B assay; assay type: functional, cell-based
[20] = test system: SN12C; assay: Growth inhibition of human SN12C cells after 48 hrs by sulforhodamine B assay; assay type: functional
[21] = test system: LOX IMVI; assay: Growth inhibition of human LOXIMVI cells after 48 hrs by sulforhodamine B assay; assay type: functional
[22] = test system: Malme-3M; assay: Growth inhibition of human MALME-3M cells at 10 uM after 48 hrs by sulforhodamine B assay; assay type: functional, cell-based
[23] = test system: PC-3; assay: Growth inhibition of human PC3 cells after 48 hrs by sulforhodamine B assay; assay type: functional; conditions: PC-3, 48 h
[24] = test system: SR; assay: Growth inhibition of human SR cells after 48 hrs by sulforhodamine B assay; assay type: functional
[25] = test system: SW-620; assay: Growth inhibition of human SW620 cells after 48 hrs by sulforhodamine B assay; assay type: functional; conditions: SW-620, 48 h
[26] = test system: RPMI-8226; assay: Growth inhibition of human RPMI8226 cells at 10 uM after 48 hrs by sulforhodamine B assay; assay type: functional, cell-based
[27] = test system: HCC 2998; assay: Growth inhibition of human HCC2998 cells at 10 uM after 48 hrs by sulforhodamine B assay; assay type: functional, cell-based
[28] = test system: UACC-62; assay: Growth inhibition of human UACC62 cells at 10 uM after 48 hrs by sulforhodamine B assay; assay type: functional, cell-based
[29] = test system: HCT-15; assay: Growth inhibition of human HCT15 cells at 10 uM after 48 hrs by sulforhodamine B assay; assay type: functional, cell-based
[30] = test system: MOLT-4; assay: Growth inhibition of human MOLT4 cells after 48 hrs by sulforhodamine B assay; assay type: functional; conditions: MOLT-4, 48 h
[31] = test system: U-251; assay: Growth inhibition of human U251 cells after 48 hrs by sulforhodamine B assay; assay type: functional; conditions: U-251, 48 h
[32] = test system: SR; assay: Growth inhibition of human SR cells at 10 uM after 48 hrs by sulforhodamine B assay; assay type: functional, cell-based
[33] = test system: DU-145; assay: Growth inhibition of human DU145 cells after 48 hrs by sulforhodamine B assay; assay type: functional; conditions: DU-145, 48 h
[34] = test system: KM12; assay: Growth inhibition of human KM12 cells after 48 hrs by sulforhodamine B assay; assay type: functional; conditions: KM12, 48 h
[35] = test system: IGROV-1; assay: Growth inhibition of human IGROV1 cells after 48 hrs by sulforhodamine B assay; assay type: functional; conditions: IGROV-1, 48 h
[36] = test system: LOX IMVI; assay: Growth inhibition of human LOXIMVI cells at 10 uM after 48 hrs by sulforhodamine B assay; assay type: functional, cell-based
[37] = test system: SNB-75; assay: Growth inhibition of human SNB75 cells after 48 hrs by sulforhodamine B assay; assay type: functional; conditions: SNB-75, 48 h
[38] = test system: A549; assay: Growth inhibition of human A549/ATCC cells after 48 hrs by sulforhodamine B assay; assay type: functional; conditions: A549, 48 h
[39] = test system: HCT-116; assay: Growth inhibition of human HCT116 cells at 10 uM after 48 hrs by sulforhodamine B assay; assay type: functional, cell-based
[40] = read-out: LC50 (the source's name)

Compound: O=C1/C(=C\c2cccn2Cc2ccccc2)c2ccccc2N1c1c(Cl)cccc1Cl
- GI50 [1]: 4.16 µM
- TGI [1]: > 100 µM
- CC50 [1, 40]: > 100 µM
- GI50 [2]: 0.37 µM
- TGI [2]: > 100 µM
- CC50 [2, 40]: > 100 µM
- GI50 [3]: 39.8 µM
- TGI [3]: > 100 µM
- CC50 [3, 40]: > 100 µM
- GI50 [4]: 6.16 µM
- TGI [4]: > 100 µM
- CC50 [4, 40]: > 100 µM
- growth inhibition (GI) [5]: Active
- GI50 [6]: 3.89 µM
- TGI [6]: > 100 µM
- CC50 [6, 40]: > 100 µM
- GI50 [7]: > 100 µM
- TGI [7]: > 100 µM
- CC50 [7, 40]: > 100 µM
- GI50 [8]: 2.13 µM
- TGI [8]: > 100 µM
- CC50 [8, 40]: > 100 µM
- growth inhibition (GI) [9]: Active
- GI50 [10]: 14.8 µM
- TGI [10]: > 100 µM
- CC50 [10, 40]: > 100 µM
- GI50 [11]: > 100 µM
- TGI [11]: > 100 µM
- CC50 [11, 40]: > 100 µM
- GI50 [12]: > 100 µM
- TGI [12]: > 100 µM
- CC50 [12, 40]: > 100 µM
- growth inhibition (GI) [13]: Active
- growth inhibition (GI) [14]: Active
- growth inhibition (GI) [15]: Active
- growth inhibition (GI) [16]: Active
- growth inhibition (GI) [17]: Active
- GI50 [18]: > 100 µM
- TGI [18]: > 100 µM
- CC50 [18, 40]: > 100 µM
- growth inhibition (GI) [19]: Active
- GI50 [20]: > 100 µM
- TGI [20]: > 100 µM
- CC50 [20, 40]: > 100 µM
- GI50 [21]: > 100 µM
- TGI [21]: > 100 µM
- CC50 [21, 40]: > 100 µM
- growth inhibition (GI) [22]: Active
- GI50 [23]: 6.91 µM
- TGI [23]: > 100 µM
- CC50 [23, 40]: > 100 µM
- GI50 [24]: > 100 µM
- TGI [24]: > 100 µM
- CC50 [24, 40]: > 100 µM
- GI50 [25]: > 100 µM
- TGI [25]: > 100 µM
- CC50 [25, 40]: > 100 µM
- growth inhibition (GI) [26]: Active
- growth inhibition (GI) [27]: Active
- growth inhibition (GI) [28]: Active
- growth inhibition (GI) [29]: Active
- GI50 [30]: > 100 µM
- TGI [30]: > 100 µM
- CC50 [30, 40]: > 100 µM
- GI50 [31]: > 100 µM
- TGI [31]: > 100 µM
- CC50 [31, 40]: > 100 µM
- growth inhibition (GI) [32]: Active
- GI50 [33]: > 100 µM
- TGI [33]: > 100 µM
- CC50 [33, 40]: > 100 µM
- GI50 [34]: 0.38 µM
- TGI [34]: > 100 µM
- CC50 [34, 40]: > 100 µM
- GI50 [35]: 0.54 µM
- TGI [35]: > 100 µM
- CC50 [35, 40]: > 100 µM
- growth inhibition (GI) [36]: Active
- GI50 [37]: 5.24 µM
- TGI [37]: > 100 µM
- CC50 [37, 40]: > 100 µM
- GI50 [38]: 8.31 µM
- TGI [38]: > 100 µM
- CC50 [38, 40]: > 100 µM
- growth inhibition (GI) [39]: Active

— ChEMBL document CHEMBL4177730, “Rational modification of semaxanib and sunitinib for developing a tumor growth inhibitor targeting ATP binding site of tyrosine kinase” (2018)
